# According to US20250102494A1, “COMPOSITION FOR PREDICTING OXALIPLATIN DRUG EFFICACY, AND USE THEREOF” (SAMSUNG LIFE PUBLIC WELFARE FOUNDATION, priority 2022, published 2025):
# What was measured:
# Assay type in all cases: cell-based
# [1] = test system: SW620 cells; assay: ATPlite cell viability after oxaliplatin, SW620 cells in organoid culture media
# Description: (§1) Advanced DMEM/F12+++ (hereinafter referred to as “Ad/DF+++”) was used to produce colorectal cancer organoids. Ad/DF+++ was refrigerated at 4° C. until use, and was used in a cold state during cell washing. Ad/DF+++ medium containing the reagents shown in Table 1 below along with Ad/DF 1× (Gibco) was prepared.
# (§2) After preparing the Ad/DF+++ medium containing the above reagents, an appropriate amount of Matrigel (Corning #356231) was added so that the ratio between Matrigel and cells suspended in the Ad/DF+++ medium was 7:3. Then, the cells were plated on low attachment well plates at an appropriate density. The density and the type and number of well plates were determined according to the characteristics of each cell type. The medium was prepared according to the composition shown in Table 2 below, and the cells were cultured (expanded) until the required level was reached while the medium was replaced every 3 to 4 days.
# If the organoids were expanded as needed for the experiment, the medium was carefully removed, taking care not to touch the Matrigel. The cells were separated from the Matrigel by pipetting about 20 times with 1 ml of cold Ad/DF+++. The cells in 1 to 4 wells per 6-well plate were collected in one 50 ml tube. If cells are collected from more than 4 wells into one tube, the Metrigel may not be washed properly. For this reason, the cells were placed in several tubes. Thereafter, Ad/DF+++ was poured to 20 to 50 ml of each tube, followed by centrifugation at 400 g for 3 minutes at 4° C. The cells were dissociated with 1 to 2 mL of TrypLE™ Express Enzyme (Gibco, 1264-013), transferred to low-attachment 24 well plates, and then treated with 10 μM of Y-27632. Next, the cells were cultured in a CO2 incubator for 5 minutes at 37° C. After pipetting about 20 times, whether the cells would be dissociated into single cells was checked by microscopic observation. If the cells were not dissociated into single cells, the culture under CO2 and pipetting processes were repeated. […] After suspending the pellet in Ad/DF+++, the cells were counted and diluted with medium according to the required number of cells. […]
# (§3) Four hours after the medium change, the cells were treated with oxaliplatin, 5-FU, Irinotecan, and folinic acid. Five days after drug treatment, intracellular ATP expression was determined using the ATPlite assay kit (PerkinElmer), and the data were expressed in terms of cell viability, IC50, and AUC.
# As the standard for confirming that cells are sensitive to the drug, the response of the cells to the drug was assumed to be 100%, and the luminescence value of surviving cells after drug treatment was analyzed and compared with the quantified drug response value. […]
# [2] = test system: HT29 cells; assay: ATPlite cell viability after oxaliplatin, HT29 cells in organoid culture media
# Description: as §1
# as §2, with “The medium was prepared according to the composition shown in Table 2 below, and the cells were cultured (expanded) until the required level was reached while the medium was replaced every 3 to 4 days.” left out
# (§4) If the organoids were expanded as needed for the experiment, the medium was carefully removed, taking care not to touch the Matrigel. […] After suspending the pellet in Ad/DF+++, the cells were counted and diluted with medium according to the required number of cells. […]
# as §3, with “AUC. […]” for “AUC.”
# [3] = test system: Resistant Cell Line (HT29, HTC15, CoLo205, Lovo); assay: Average oxaliplatin AUC over resistant colorectal cancer cell lines
# Description: as §3
# As the standard for confirming that cells are sensitive to the drug, the response of the cells to the drug was assumed to be 100%, and the luminescence value of surviving cells after drug treatment was analyzed and compared with the quantified drug response value.
# Based on the assumption that the factor that increases the resistance of the organoids to oxaliplatin is an activator or inhibitor that changes the phenotype, the organoids prepared by excluding some or all of activators and inhibitors as shown in Table 4 below were treated with oxaliplatin.
# In order to confirm reduced resistance to oxaliplatin, ECT116, RKO, SW620, and LS147T cell lines, which are highly sensitive to oxaliplatin, and HT29, HTC15, CoLo205, and Lovo cell lines, which are low sensitive to oxaliplatin, were used.
# When the above results were combined with the results shown by cell lines with high sensitivity to oxaliplatin and cell lines with low sensitivity to oxaliplatin, the result data shown in FIGS. 23 and 24 and Tables 5 to 7 below were obtained.
# [4] = test system: 166T colorectal cancer patient-derived organoids; assay: Cell viability after oxaliplatin, 2D and 3D culture of patient-derived organoids; settings: for cell viability, Ex1 medium compared with control (CRC): FIGS. 26 and 27
# Description: as §3
# In order to evaluate the difference between 2D culture and 3D culture performed using the above medium compositions, 166T CoLvM patient-derived organoids were cultured under 2D culture conditions and 3D culture conditions.
# [5] = test system: LoVo cells; assay: ATPlite cell viability after oxaliplatin, LoVo cells in organoid culture media
# Description: as §1
# as §2, with “The medium was prepared according to the composition shown in Table 2 below, and the cells were cultured (expanded) until the required level was reached while the medium was replaced every 3 to 4 days.” left out
# as §4
# as §3, with “AUC. […]” for “AUC.”
smiles,measurement,setting,value
O=C1[O][Pt]2([NH][C@@H]3CCCC[C@H]3[NH]2)[O]C1=O [oxaliplatin],"AUC value, Ex2 compared with other organoid culture conditions","[1]; SW620, FIG. 9",lower in the organoid culture conditions of Ex2
same,"AUC value, Ex3 and Ex4 compared with Ex1","[1]; SW620, FIG. 9",no significant difference in AUC values from Ex1
same,"IC50 value, Ex2 compared with Ex1","[1]; SW620, FIG. 10",lower in Ex2 than in Ex1
same,cell viability,"[1]; SW620 in Ex2, log [oxaliplatin] value 1, FIG. 11",50%
same,"AUC value, Ex1 to Ex4 compared","[2]; HT29, FIG. 15","Ex1 to Ex3 showed similar AUC values, but Ex4 showed slightly lower AUC values than Ex1 to Ex3"
same,cell viability versus oxaliplatin concentration,"[2]; HT29 cell line and Ex1 to Ex4, FIG. 16",did not decrease under all the culture conditions
same,EX1_AUC,"[3]; average over resistant cell lines, Ex1 medium",420.02
same,EX2_AUC,"[3]; average over resistant cell lines, Ex2 medium",420.86
same,normal_AUC,"[3]; average over resistant cell lines, normal cell-line culture",391.80
same,"sensitivity to oxaliplatin, Ex2 compared with Ex1","[3]; cell lines with low sensitivity, FIG. 24",no difference in sensitivity to oxaliplatin between Ex1 and Ex2
same,EX1 − EX2 (AUC difference),[3]; resistant cell lines,−0.85
same,"cell viability, Ex2 medium compared with control",[4]; 2D and 3D culture,cell viabilities similar to those of the control group
same,"cell viability, Ex1 medium compared with control (CRC)",[4]; 2D culture,cell viability similar to that of the control (CRC) cell line
same,"cell viability, Ex1 medium compared with control (CRC)",[4]; 3D culture,higher cell viability than that of the control (CRC) cell line
same,cell viability,"[5]; LoVo organoids, log [oxaliplatin] values approaching 2, FIG. 22",≥ 50%
same,AUC values of Ex2 to Ex4 compared with Ex1,"[5]; LoVo, FIG. 21",higher than that of Ex1
